# Assay results taken from BindingDB's records for doi:10.1016/j.bmc.2006.03.021 (Vernalis (R&D), 2006).
# pIC50: −log10 of the molar value.
# Molecular target: T1, Serine/threonine-protein kinase Chk1 (Homo sapiens, UniProt O14757)
# T1 sequence (O14757 whole entry): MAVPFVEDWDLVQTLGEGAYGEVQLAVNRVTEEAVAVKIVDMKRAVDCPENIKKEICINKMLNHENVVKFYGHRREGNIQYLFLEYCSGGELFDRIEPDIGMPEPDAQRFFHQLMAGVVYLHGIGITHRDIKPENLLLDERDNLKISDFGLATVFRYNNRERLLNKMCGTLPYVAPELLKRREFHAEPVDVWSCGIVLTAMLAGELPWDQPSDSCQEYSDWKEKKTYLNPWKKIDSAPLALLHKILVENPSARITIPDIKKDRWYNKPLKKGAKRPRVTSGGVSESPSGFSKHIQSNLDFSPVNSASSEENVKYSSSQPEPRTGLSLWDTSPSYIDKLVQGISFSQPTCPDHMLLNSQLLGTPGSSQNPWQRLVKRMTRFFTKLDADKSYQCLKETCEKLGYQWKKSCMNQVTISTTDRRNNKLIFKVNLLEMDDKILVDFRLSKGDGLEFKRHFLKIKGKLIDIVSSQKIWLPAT
# Experiment: Chk1 Enzymatic Assay
# Details: pH 7.5; 30 °C
# Protocol: Chk1 kinase activity was assayed in reaction buffer containing substrate peptide, enzyme, and inhibitor in the presence of 100uM ATP/[gamma-33P] ATP. 33P incorporation was measured using a Perkin-Elmer Trilux scintillation counter. The IC50 is the inhibitor concentration, which inhibits 50% of kinase activity that catalyzes the transfer of the terminal phosphate from 33P labeled ATP to the substrate.
row,SMILES,pIC50
1,Nc1ncnc2nc(SCC(=O)O)[nH]c12 [2-[(6-amino-9H-purin-8-yl)sulfanyl]acetic acid],4.50
2,"NN1C(=O)C([c-]2c(=O)[nH]c3ccc([N+](=O)[O-])cc32)=[S+]C1=S [3-amino-5-[(3Z)-5-nitro-2-oxo-2,3-dihydro-1H-indol-3-ylidene]-2-sulfanylidene-1,3-thiazolidin-4-one]",4.14
3,"COc1ccc(Cl)cc1-c1nnc(Nc2ccc(C(=O)O)cc2)s1 [4-{[5-(5-chloro-2-methoxyphenyl)-1,3,4-thiadiazol-2-yl]amino}benzoic acid]",4.58
4,"Cc1[nH]nc2c1C(c1ccc(O)c(O)c1)C(C#N)C(=N)O2 (stereo unspecified) [6-amino-4-(3,4-dihydroxyphenyl)-3-methyl-1H,4H-pyrano[2,3-c]pyrazole-5-carbonitrile]",4.69
5,"Clc1cc2c(cc1CN=Nc1nnc3c(n1)[nH]c1ccccc13)OCO2 [(1E)-1-[(6-chloro-2H-1,3-benzodioxol-5-yl)methylidene]-2-{5H-[1,2,4]triazino[5,6-b]indol-3-yl}hydrazine]",4.70
6,"NCCCNc1nc(F)c(Cl)c(C2c3ccccc3Sc3ccccc32)c1F [N-(3-aminopropyl)-5-chloro-3,6-difluoro-4-(9H-thioxanthen-9-yl)pyridin-2-amine]",4.80
